Data published in patent US7034044B2, “Conjugated aromatic compounds with a pyridine substituent” (Hoffmann-La Roche Inc., priority 2001, dated 2006).
Where a name gives a salt, the structure may show the parent alone.

Key:
[1] = target: T1, NMDA-receptor subtype 2B (Rattus norvegicus, UniProt P35439+Q00960); experiment: 3H-Ro 25-6981 binding (displacement); conditions: displacement of 5 nM 3H-Ro 25-6981 from rat brain membranes (whole brain minus cerebellum and medulla oblongata), 2 hours at 4° C., Tris-HCl 50 mM pH 7.4
T1 construct: Membranes were prepared by homogenization of the whole brain minus cerebellum and medulla oblongata; from tissue; host or cells: rat whole brain minus cerebellum and medulla oblongata (membranes)
Protocol: ^3H-Ro 25-6981 binding (Ro 25-6981 is [R—(R*,S*)]-α-(4-Hydroxy-phenyl)-β-methyl-4-(phenyl-methyl)-1-piperidine propanol)
Male Füllinsdorf albino rats weighing between 150–200 g were used. Membranes were prepared by homogenization of the whole brain minus cerebellum and medulla oblongata with a Polytron (10.000 rpm, 30 seconds), in 25 volumes of a cold Tris-HCl 50 mM, EDTA 10 mM, pH 7.1 buffer. The homogenate was centrifuged at 48,000 g for 10 minutes at 4° C. The pellet was resuspended using the Polytron in the same volume of buffer and the homogenate was incubated at 37° C. for 10 minutes. After centrifugation the pellet was homogenized in the same buffer and frozen at −80° C. for at least 16 hours but not more than 10 days. For the binding assay the homogenate was thawed at 37° C., centrifuged and the pellet was washed three times as above in a Tris-HCl 5 mM, pH 7.4 cold buffer. The final pellet was resuspended in the same buffer and used at a final concentration of […].
^3H-Ro 25-6981 binding experiments were performed using a Tris-HCl 50 mM, pH 7.4 buffer. For displacement experiments 5 nM of ^3H-Ro 25-6981 were used and non specific binding was measured using 10 mM of tetrahydroisoquinoline and usually it accounts for 10% of the total. The incubation time was 2 hours at 4° C. and the assay was stopped by filtration on Whatmann GF/B glass fiber filters (Unifilter-96, Packard, Zürich, Switzerland). The filters were washed 5 times with cold buffer. The radioactivity on the filter was counted on a Packard Top-count microplate scintillation counter after addition of […] of microscint 40 (Canberra Packard S. A., Zürich, Switzerland).
The above procedure was performed to determine data for calculation of an IC50 value. The IC50 value is a concentration expressed in micromoles (μM) for a test compound at which 50% of the ligand (in this determination, ^3H-Ro 25-6981) bonded to the receptor is displaced. The binding ability of the compounds of the invention was measured in vitro using a minimum of 10 concentrations and repeated at least once. The specific binding at each concentration was then calculated as the % of the maximum specific binding (100%) obtained in the same experiment, in the absence of a test compound. Competitive displacement of ^3H-Ro 25-6981 was observed, with complete displacement of the radioligand from specific binding sites (usually about 0% of specific binding at the highest concentrations tested). An IC50 value was then calculated with all the ten datapoints (% of specific bound) by plotting the data on a semilogarithmic scale with a sigmoidal fit (Log of the molar concentration on X-axis vs. % of specific bound on the Y-axis) using Microsoft Excel fit software or Microcal Origin software. The pooled normalized values were analyzed using a non-linear regression calculation program which provide IC50 with their relative upper and lower 95% confidence limits.

T1 sequence (Q00960 27-1482, other chains not shown): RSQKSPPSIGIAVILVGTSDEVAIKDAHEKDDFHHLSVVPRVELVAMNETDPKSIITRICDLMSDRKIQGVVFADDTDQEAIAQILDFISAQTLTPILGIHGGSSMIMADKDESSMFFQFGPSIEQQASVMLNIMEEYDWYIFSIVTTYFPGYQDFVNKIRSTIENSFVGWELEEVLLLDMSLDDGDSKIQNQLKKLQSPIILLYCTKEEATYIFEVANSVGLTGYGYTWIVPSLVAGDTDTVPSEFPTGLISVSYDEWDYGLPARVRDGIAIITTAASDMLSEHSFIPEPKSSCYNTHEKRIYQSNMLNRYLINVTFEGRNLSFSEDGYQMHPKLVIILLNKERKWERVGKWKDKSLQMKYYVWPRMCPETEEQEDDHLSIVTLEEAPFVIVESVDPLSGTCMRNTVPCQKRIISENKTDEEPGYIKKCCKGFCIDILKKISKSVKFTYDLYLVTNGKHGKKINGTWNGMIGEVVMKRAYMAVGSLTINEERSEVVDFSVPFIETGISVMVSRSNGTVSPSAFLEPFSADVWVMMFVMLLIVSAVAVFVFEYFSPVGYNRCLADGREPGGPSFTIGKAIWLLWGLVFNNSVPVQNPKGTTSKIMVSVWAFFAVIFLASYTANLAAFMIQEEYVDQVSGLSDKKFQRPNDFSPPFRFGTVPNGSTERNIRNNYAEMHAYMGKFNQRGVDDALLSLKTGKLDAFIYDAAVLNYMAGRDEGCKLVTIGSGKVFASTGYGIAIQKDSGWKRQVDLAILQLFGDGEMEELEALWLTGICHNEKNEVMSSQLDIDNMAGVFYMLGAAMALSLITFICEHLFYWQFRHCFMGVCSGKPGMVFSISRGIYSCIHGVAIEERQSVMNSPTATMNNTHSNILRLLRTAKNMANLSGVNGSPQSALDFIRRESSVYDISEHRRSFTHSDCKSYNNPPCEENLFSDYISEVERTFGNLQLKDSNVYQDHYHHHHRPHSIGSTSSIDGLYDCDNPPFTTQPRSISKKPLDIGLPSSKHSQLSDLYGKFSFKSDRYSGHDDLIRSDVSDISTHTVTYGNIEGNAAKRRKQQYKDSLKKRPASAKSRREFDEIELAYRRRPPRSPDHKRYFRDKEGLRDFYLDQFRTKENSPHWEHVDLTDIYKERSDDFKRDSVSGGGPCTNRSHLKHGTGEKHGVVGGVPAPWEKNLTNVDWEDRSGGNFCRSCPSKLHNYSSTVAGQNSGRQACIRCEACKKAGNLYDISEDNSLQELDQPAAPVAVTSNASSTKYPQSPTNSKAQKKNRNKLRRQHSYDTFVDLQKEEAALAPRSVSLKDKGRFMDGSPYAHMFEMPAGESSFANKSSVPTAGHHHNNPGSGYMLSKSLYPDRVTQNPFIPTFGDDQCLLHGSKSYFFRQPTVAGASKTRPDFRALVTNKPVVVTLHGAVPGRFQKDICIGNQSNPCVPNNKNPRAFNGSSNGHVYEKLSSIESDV

melting point | IC50 [1] [nM] | Structure (SMILES)
183 to 185 °C (dec.) | – | Cc1cc(N)cc(C2=Cc3ccccc3C(C)C2)n1.O=C(O)/C=C/C(=O)O (racemic)
231 to 232 °C | 57 | Cc1cc(C)c2c(c1)C=C(c1cc(N)ccn1)CC2.O=C(O)/C=C/C(=O)O [Example 34, 2-(5,7-Dimethyl-3,4-dihydro-naphthalen-2-yl)-pyridin-4-yl-amine fumarate]
159 to 160 °C | – | Nc1ccc(/C=C/c2ccccc2)nc1 [Example 15, trans-6-Styryl-pyridin-3-yl-amine]
> 250 °C | – | Cl.Nc1cccc(C=Cc2ccc(F)cc2)n1
224 to 225 °C | – | Nc1cccc(C=Cc2ccc(O)cc2)n1 [Example 11, 4-[2-(6-Amino-pyridin-2-yl)-vinyl]-phenol]
> 250 °C | – | Cc1cnc(C2=Cc3cc(Cl)ccc3CC2)cc1N.O=C(O)/C=C/C(=O)O
176 to 177 °C | – | CC1CC(c2cc(N)ccn2)=Cc2ccccc21.O=C(O)/C=C/C(=O)O (racemic)
248 to 249 °C | – | Cl.Nc1cccc(C=Cc2cccc(Cl)c2)n1
– | 20 | Nc1ccnc(C2=Cc3cc(Cl)ccc3CC2)c1 [Example 30, 2-(7-Chloro-3,4-dihydro-naphthalen-2-yl)-pyridin-4-ylamine fumarate]
202 to 203 °C | 32 | Cc1cc(N)cc(C2=Cc3ccccc3CC2)n1.O=C(O)/C=C/C(=O)O [Example 22, 2-(3,4-Dihydro-naphthalen-2-yl)-6-methyl-pyridin-4-yl-amine fumarate]
113 °C (dec.) | – | Nc1cc(CO)nc(C2=Cc3ccccc3CC2)c1.O=C(O)/C=C/C(=O)O
164 to 165 °C | 40 | Nc1ccnc(/C=C/c2ccccc2)c1 [Example 16, trans-2-Styryl-pyridin-4-yl-amine]
153 to 154 °C | – | Nc1cccc(C2=Cc3ccccc3CC2)n1.O=C(O)/C=C/C(=O)O
> 250 °C | 10 | Cc1cc(N)nc(/C=C/c2ccccc2)c1.Cl [Example 14, trans-4-Methyl-6-styryl-pyridin-2-yl-amine hydrochloride]
193 to 194 °C | – | COc1ccc2c(c1)C=C(c1cc(N)ccn1)CC2.O=C(O)/C=C/C(=O)O

The next lines start with the molecule.

Structure (SMILES) | melting point | IC50 [1] [nM]
Cl.Nc1cccc(C=Cc2ccccc2F)n1 | > 250 °C | –
Cc1ccc(C)c2c1C=C(c1cc(N)ccn1)CC2.O=C(O)/C=C/C(=O)O | 232 to 233 °C | –
Cl.Nc1cccc(C=Cc2cccc(F)c2)n1 | > 250 °C | –
Cc1cnc(C2=Cc3ccsc3CC2)cc1N.O=C(O)/C=C/C(=O)O | 218 to 219 °C | –
Cl.Nc1cccc(C=Cc2ccc(Cl)c(Cl)c2)n1 | > 250 °C | –
CNc1ccnc(C2=Cc3ccccc3CC2)c1.O=C(O)/C=C/C(=O)O [Example 27, [2-(3,4-Dihydro-naphthalen-2-yl)-pyridin-4-yl]-methyl-amine fumarate] | 106 to 107 °C | 52
Cc1cc(N)cc(C2=Cc3cc(Cl)ccc3CC2)n1.O=C(O)/C=C/C(=O)O [Example 37, 2-(7-Chloro-3,4-dihydro-naphthalen-2-yl)-6-methyl-pyridin-4-yl-amine fumarate] | 232 to 233 °C | 82
Cl.Nc1ccnc(C2=Cc3ccccc3CC2)c1 [Example 19, 2-(3,4-Dihydro-naphthalen-2-yl)-pyridin-4-yl-amine hydrochloride] | 231 to 232 °C | 18
CCc1cc(N)cc(C2=Cc3cc(Cl)ccc3CC2)n1.O=C(O)/C=C/C(=O)O [Example 36, 2-(7-Chloro-3,4-dihydro-naphthalen-2-yl)-6-ethyl-pyridin-4-yl-amine fumarate] | 232 to 233 °C | 23
Cl.Nc1cccc(C=Cc2ccc(Cl)cc2)n1 | > 250 °C | –
Cc1cc(N)nc(C2=Cc3ccccc3CC2)c1.O=C(O)/C=C/C(=O)O | 142 to 143 °C | –
Cc1cc(/C=C/c2ccccc2)cc(N)n1 [Example 13, trans-6-Methyl-4-styryl-pyridin-2-yl-amine] | 149 to 150 °C | 30
COc1ccc(C=Cc2cccc(N)n2)cc1.Cl | 224 to 226 °C | –
Cc1cnc(C2=Cc3ccccc3C(C)C2)cc1N.O=C(O)/C=C/C(=O)O (racemic) | 210 to 211 °C | –
Cl.Nc1cccc(C=Cc2cccc(C(F)(F)F)c2)n1 | 222 to 223 °C | –
Cl.NCc1cccc(C2=Cc3ccccc3CC2)n1 [Example 28, C-[6-(3,4-Dihydro-naphthalen-2-yl)-pyridin-2-yl]-methylamine hydrochloride] | 203 to 204 °C | 38
Cl.NCc1cccc(/C=C/c2ccccc2)n1 [Example 18, trans-C-(6-Styryl-pyridin-2-yl)-methylamine hydrochloride] | 170 °C (dec.) | 80
Cc1cnc(C2=Cc3ccccc3CC2)cc1N.O=C(O)/C=C/C(=O)O [Example 24, 2-(3,4-Dihydro-naphthalen-2-yl)-5-methyl-pyridin-4-yl-amine fumarate] | > 200 °C (dec.) | 11
Cc1c(N)ccnc1C1=Cc2ccccc2CC1 [Example 25, 2-(3,4-Dihydro-naphthalen-2-yl)-3-methyl-pyridin-4-yl-amine] | 87 to 88 °C | –
Nc1ccnc(C2=Cc3ccsc3CC2)c1.O=C(O)/C=C/C(=O)O | 199 to 200 °C | –
Cc1ccc(C=Cc2cccc(N)n2)cc1.Cl | > 250 °C | –
CCc1cc(N)cc(C2=Cc3ccccc3CC2)n1.O=C(O)/C=C/C(=O)O [Example 26, 2-(3,4-Dihydro-naphthalen-2-yl)-6-ethyl-pyridin-4-yl-amine fumarate] | > 230 °C (dec.) | 38
CNc1cccc(/C=C/c2ccccc2)n1.Cl | 157 to 158 °C | –
COc1cccc2c1CCC(c1cc(N)ccn1)=C2.O=C(O)/C=C/C(=O)O | 207 to 208 °C | –
